Experimental data from PMC11571207, “Stereorandomized Oncocins with Preserved Ribosome Binding and Antibacterial Activity” (Journal of Medicinal Chemistry, 2024).
≈ marks a conversion by molar mass, not a printed value. Where two headings read alike, the source gives them in different places. No end group written: not given here.

Columns and labels:
A. baumannii ATCC19606 = experiment: microbe, parasite or virus in culture; conditions: for MIC: Acinetobacter baumannii; for MIC A. baumannii, 12.5% MHB / MIC A. baumannii, Full MHB: A. baumannii ATCC19606; for MIC A. baumannii ATCC19606: supplement CSV
Outline: (§1)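 Read-out was visible growth after MTT addition, the MIC being the lowest inhibitory peptide concentration. Bacteria grown to log phase in LB were exposed in MH medium to peptide from 64 μg/mL in twofold dilutions for 15-18h at 37°C.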

E. coli W3110 [1] = experiment: microbe, parasite or virus in culture; conditions: for MIC: Escherichia coli; for MIC E. coli, 12.5% MHB / MIC E. coli, Full MHB: E. coli W3110; for MIC E. coli W3110: supplement CSV
Outline: as §1

K. pneumoniae NCTC 418 = experiment: microbe, parasite or virus in culture; conditions: for MIC: Klebsiella pneumoniae; for MIC K. pneumoniae, 12.5% MHB / MIC K. pneumoniae, Full MHB: K. pneumoniae NCTC 418; for MIC K. pneumoniae NCTC418: supplement CSV
Outline: as §1

P. aeruginosa PAO1 = experiment: microbe, parasite or virus in culture; conditions: for MIC: Pseudomonas aeruginosa; for MIC P. aeruginosa PAO1: supplement CSV; for MIC P. aeruginosa, 12.5% MHB / MIC P. aeruginosa, Full MHB: P. aeruginosa PAO1, 16–20 h at 37 °C; for MIC P. aeruginosa, 12.5% MHB: 12.5% Müller–Hinton medium; for MIC P. aeruginosa, Full MHB: full Müller–Hinton medium
Outline: as §1

S. aureus COL (MRSA) = experiment: microbe, parasite or virus in culture; conditions: for MIC: Staphylococcus aureus, MRSA; for MIC S. aureus COL (MRSA): supplement CSV; for MIC S. aureus, 12.5% MHB / MIC S. aureus, Full MHB: S. aureus COL (MRSA), 16–20 h at 37 °C; for MIC S. aureus, 12.5% MHB: 12.5% Müller–Hinton medium; for MIC S. aureus, Full MHB: full Müller–Hinton medium
Outline: as §1

E. coli W3110 [2] = experiment: Time-killing kinetic assay, E. coli; assay type: cell-based, Escherichia coli; conditions: 8× MIC, full MHB pH 7.4, 0-6 h, n = 6
Procedure: (§2) Time-Killing Kinetic Assay
(§3) Single colonies of E. coli W3110 and K. pneumoniae NCTC418 were picked and grown overnight with shaking (180 rpm) in LB (Sigma-Aldrich, Buchs, Switzerland) medium 5 mL overnight at 37 °C. The overnight bacterial cultures were diluted to OD600 = 0.002 (2 × 10^6 CFU/mL) in fresh MHB medium. Stock solutions of AMPs in sterilized milliQ water were prepared in 1 mg/mL and were diluted to two times more than required concentration in fresh MHB (Sigma- Aldrich, Buchs, Switzerland) medium at pH 7.4. 100 μL of prepared bacteria solution in MHB and 100 μL of samples in MHB were mixed in a 96-well microtiter plate (TPP, untreated, Corning Incorporated, Kennebunk, USA). Untreated bacteria at 1 × 10^6 CFU/mL were used as a growth control. 96-well microtiter plates were incubated in 37 °C with shaking (180 rpm). Surviving bacteria were quantified at 0, 0.5, 1, 2, 4 and 6 h by plating 10 -fold dilutions of the sample in sterilized normal saline on LB agar plates. LB agar plates were incubated at 37 °C for 10 h, and the number of individual colonies was counted at each time point. The assay was performed in triplicate in a biosafety level 2 lab. […]

K. pneumoniae NCTC418 = experiment: Time-killing kinetic assay, K. pneumoniae; assay type: cell-based, Klebsiella pneumoniae; conditions: 8× MIC, full MHB pH 7.4, 0-6 h, n = 6
Procedure: as §2, §3

[3] = system: E. coli ribosome, U2506 of the 23S rRNA; experiment: Ribosome footprinting (CMCT modification of U2506); assay type: binding; conditions: 1 μM peptide, 10.5 μM CMCT, purified E. coli ribosomes (5 pmol), 25 °C; primer extension, sequencing gel
Procedure: A 5 mL culture of E. coli MG1655 (WT-cells) was grown in LB overnight (220 rpm, 37 °C). One liter LB medium was inoculated, and bacteria were grown to OD = 0.6 (220 rpm. 37 °C); cells were centrifuged in centrifuge bottles, and the pellet was resuspended in ice-cold water and transferred in 50 mL falcon tubes. Falcon tubes were centrifuged, the supernatant was removed, the pellet was resuspended in 15 mL polysome buffer (TRIS/HCl pH 7.5 20 mM, NH4Cl 100 mM, MgCl2 10 mM, EDTA 0.5 mM, β-mercaptoethanol 60 mM), frozen dropwise in N2 (l), and stored at −80 °C. The cells were ground in CryoMil with the standard program (1 min precooling, 2 min grinding 5/s, 2 min cooling, 2 min grinding 5/s). The powder was transferred in 50 mL falcon tubes containing N2 (l) and stored at −80 °C. The lysates were thawed with a water bath (30 °C), put on ice, transferred to precooled Eppendorf tubes, and centrifuged (5000 g, 2 min, 4 °C). The clear lysate was transferred to new precooled tubes, centrifuged (14 000 g, 10 min, 4 °C), and the supernatant was transferred to new precooled tubes. 300 mL of clear lysate was loaded on a 10–50% sucrose gradient in CMCT buffer (K-borate buffer pH 8 80 mM, MgCl2 25 mM, NH4Cl 100 mM) and ultracentrifuged (3 h, 234 050 g, 4 °C). The fractions containing monosomes and polysomes were collected and ultracentrifuged overnight (16 h, 260 800 g, 4 °C). The supernatant was discarded, and the pellet was washed with ice-cold CMCT buffer. The ribosomes were resuspended in 100 μL CMCT buffer with a mini magnetic stirring bar and stored on ice. The concentration of ribosomes was measured in 1/200 dilution in water.
Ribosomes (5 pmol) were mixed with 8 μL of CMCT buffer, the compound of interest 1 μM, and water to a final volume of 20 μL in a precooled tube and incubated at 25 °C for 10 min. 20 μL of CMCT (10.5 μM) in water was added and incubated at 25 °C for 30 min. The reaction was stopped with 160 μL of EDTA (30 μM), and the samples were stored on ice.
160 μL portion of RNA resuspension buffer and 40 μL of 10% SDS were added, and the samples were vigorously resuspended. 400 μL of prewarmed acid phenol was added, and the samples were incubated on a thermomixer (5 min, 1200 rpm, 65 °C). The samples were put on ice for 5 min and centrifuged (5 min, 14 000 g, RT). The watery phase was transferred to a new precooled tube, 400 μL of phenol–chloroform–isoamyl alcohol (4 °C) was added, and the samples were mixed (5 min, 1200 rpm, RT). The samples were centrifuged again (5 min, 14 000g, RT), and the watery phase was transferred to another precooled tube. 34 μL of 3 M NaOAc pH 5.5, 0.8 μL of Glycoblue and 400 μL of isopropanol were added, and the samples were incubated for 3 h at −80 °C. The samples were then centrifuged (40 min, 21 000g, 4 °C), and the pellet was washed with ice-cold 70% EtOH. The residual liquid was removed, and the samples were dried (5 min, 37 °C). The samples were resuspended in 20 μL of water, the concentration was measured, and the samples were −80 °C.
Primers designed to probe the positions 2506 of the 23S rRNA (5-[sequence]-3′) were labeled with radioactive phosphate (γ^32 P-ATP). […] To prepare primers for one reaction, 1 μL of primer (0.3 μM), 0.4 μL of 5× PNK-buffer, 0.25 μL of water, 0.2 μL of γ^32 P-ATP, and 0.15 μL of T4 PNK were mixed and incubated at 37 °C.

[4] = 12.5% Müller–Hinton medium, 16–20 h at 37 °C
[5] = full Müller–Hinton medium, 16–20 h at 37 °C
[6] = 12.5% Müller–Hinton medium, 16–20 h at 37 °C, broth microdilution
[7] = full Müller–Hinton medium, 16–20 h at 37 °C, broth microdilution

Row | Molecule | MIC P. aeruginosa PAO1 (P. aeruginosa PAO1; full MH pH 7.4) [µg/mL] | MIC S. aureus COL (MRSA) (S. aureus COL (MRSA); 12.5% MH pH 7.4) [µg/mL] | Killing profile against E. coli (E. coli W3110 [2]) | Killing profile against K. pneumoniae (K. pneumoniae NCTC418) | MIC A. baumannii, 12.5% MHB (A. baumannii ATCC19606; [4]) [µg/mL] | MIC A. baumannii, Full MHB (A. baumannii ATCC19606; [5]) [µg/mL] | MIC A. baumannii ATCC19606 (A. baumannii ATCC19606; 12.5% MH pH 7.4) [µg/mL] | MIC A. baumannii ATCC19606 (A. baumannii ATCC19606; full MH pH 7.4) [µg/mL] | MIC E. coli, 12.5% MHB (E. coli W3110 [1]; [6]) [µg/mL] | MIC E. coli, Full MHB (E. coli W3110 [1]; [7]) [µg/mL] | MIC E. coli W3110 (E. coli W3110 [1]; 12.5% MH pH 7.4) [µg/mL] | MIC E. coli W3110 (E. coli W3110 [1]; full MH pH 7.4) [µg/mL] | MIC K. pneumoniae, 12.5% MHB (K. pneumoniae NCTC 418; [4]) | MIC K. pneumoniae, Full MHB (K. pneumoniae NCTC 418; [5]) | MIC K. pneumoniae NCTC418 (K. pneumoniae NCTC 418; 12.5% MH pH 7.4) [µg/mL] | MIC K. pneumoniae NCTC418 (K. pneumoniae NCTC 418; full MH pH 7.4) [µg/mL] | MIC P. aeruginosa, 12.5% MHB (P. aeruginosa PAO1) [µg/mL] | MIC P. aeruginosa, Full MHB (P. aeruginosa PAO1) [µg/mL] | MIC P. aeruginosa PAO1 (P. aeruginosa PAO1; 12.5% MH pH 7.4) [µg/mL] | MIC S. aureus, 12.5% MHB (S. aureus COL (MRSA)) | also measured
1 | CC[C@H]1OC(=O)[C@H](C)[C@@H](O[C@H]2C[C@@](C)(OC)[C@@H](O)[C@H](C)O2)[C@H](C)[C@@H](O[C@@H]2O[C@H](C)C[C@H](N(C)C)[C@H]2O)[C@](C)(O)C[C@@H](C)CN(C)[C@H](C)[C@@H](O)[C@]1(C)O [AZM, azithromycin, reference compound] | 32 (≈ 42.7 µM) | <0.5 | acted bacteriostatically | acted bacteriostatically | – | – | – | – | – | – | – | – | – | – | – | – | – | – | – | – | MIC (A. baumannii ATCC19606; ATCC19606, pH 7.4, read-out: MIC A. baumannii ATCC19606, supplement CSV, 12.5% MH pH 7.4): 32 µg/mL (≈ 42.7 µM); MIC (A. baumannii ATCC19606; ATCC19606, pH 7.4, read-out: MIC A. baumannii ATCC19606, supplement CSV, full MH pH 7.4): 4 µg/mL (≈ 5.34 µM); MIC (A. baumannii ATCC19606; ATCC19606, read-out: MIC A. baumannii, 12.5% MHB, A. baumannii ATCC19606, 12.5% Müller–Hinton medium, 16–20 h at 37 °C): 32 µg/mL (≈ 42.7 µM); MIC (A. baumannii ATCC19606; ATCC19606, read-out: MIC A. baumannii, Full MHB, A. baumannii ATCC19606, full Müller–Hinton medium, 16–20 h at 37 °C): 4 µg/mL (≈ 5.34 µM); MIC (E. coli W3110 [1]; W3110, pH 7.4, read-out: MIC E. coli W3110, supplement CSV, 12.5% MH pH 7.4): 2 µg/mL (≈ 2.67 µM); MIC (E. coli W3110 [1]; W3110, pH 7.4, read-out: MIC E. coli W3110, supplement CSV, full MH pH 7.4): < 0.5 µg/mL; MIC (E. coli W3110 [1]; W3110, read-out: MIC E. coli, 12.5% MHB, E. coli W3110, 12.5% Müller–Hinton medium, 16–20 h at 37 °C, broth microdilution): 2 µg/mL (≈ 2.67 µM); MIC (E. coli W3110 [1]; W3110, read-out: MIC E. coli, Full MHB, E. coli W3110, full Müller–Hinton medium, 16–20 h at 37 °C, broth microdilution): < 0.5 µg/mL; MIC (K. pneumoniae NCTC 418; NCTC418, pH 7.4, read-out: MIC K. pneumoniae NCTC418, supplement CSV, 12.5% MH pH 7.4): 1 µg/mL (≈ 1.34 µM); MIC (K. pneumoniae NCTC 418; NCTC418, pH 7.4, read-out: MIC K. pneumoniae NCTC418, supplement CSV, full MH pH 7.4): < 0.5 µg/mL; MIC (K. pneumoniae NCTC 418; NCTC418, read-out: MIC K. pneumoniae, 12.5% MHB, K. pneumoniae NCTC 418, 12.5% Müller–Hinton medium, 16–20 h at 37 °C): 1 µg/mL (≈ 1.34 µM); MIC (K. pneumoniae NCTC 418; NCTC418, read-out: MIC K. pneumoniae, Full MHB, K. pneumoniae NCTC 418, full Müller–Hinton medium, 16–20 h at 37 °C): < 0.5 µg/mL; MIC (P. aeruginosa PAO1; PAO1, pH 7.4, read-out: MIC P. aeruginosa PAO1): 32 µg/mL (≈ 42.7 µM); MIC (P. aeruginosa PAO1; PAO1, read-out: MIC P. aeruginosa, 12.5% MHB): 32 µg/mL (≈ 42.7 µM); MIC (P. aeruginosa PAO1; PAO1, read-out: MIC P. aeruginosa, Full MHB): 32 µg/mL (≈ 42.7 µM); MIC (S. aureus COL (MRSA); pH 7.4, read-out: MIC S. aureus COL (MRSA)): < 0.5 µg/mL; MIC (S. aureus COL (MRSA); read-out: MIC S. aureus, 12.5% MHB): < 0.5 µg/mL; MIC (S. aureus COL (MRSA); read-out: MIC S. aureus, Full MHB): < 0.5 µg/mL
2 | VDKPPYLPRPRPPRRIYNR [sr5Cterm-Onc] (VDKPPYLPRPRPPRRIYNR-NH2; also: residues 15-19 stereorandomized (1:1 L/D mixture)) [oncocin with the five C-terminal residues stereorandomized] | 64 | >16 | comparable kinetics to L-Onc | comparable kinetics to L-Onc | 4 | 32 | 4 | 32 | 2 | 4 | 2 | 4 | 2 / 2 μg/mL | 2 / 2 μg/mL | 2 | 2 | 8 | 64 | 8 | > 16 µg/mL | MIC S. aureus, Full MHB (S. aureus COL (MRSA)): > 64 µg/mL; MIC S. aureus COL (MRSA) (S. aureus COL (MRSA); full MH pH 7.4): >64 µg/mL; Protection of U2506 of 23S rRNA from CMCT modification (band at C2507) [3]: protected from CMCT modification
3 | VDKPPYLPRPRPPRRIYNR [sr8Cterm-Onc] (VDKPPYLPRPRPPRRIYNR-NH2; also: residues 12-19 stereorandomized (1:1 L/D mixture)) [oncocin with 8 C-terminal residues stereorandomized] | 64 | >16 | comparable kinetics to L-Onc | comparable kinetics to L-Onc | 4 | 32 | 4 | 32 | 4 | 8 | 4 | 8 | 2 µg/mL | 4 µg/mL | 2 | 4 | 8 | 64 | 8 | > 16 µg/mL | MIC S. aureus, Full MHB (S. aureus COL (MRSA)): > 64 µg/mL; MIC S. aureus COL (MRSA) (S. aureus COL (MRSA); full MH pH 7.4): >64 µg/mL; Protection of U2506 of 23S rRNA from CMCT modification (band at C2507) [3]: protected from CMCT modification
4 | VDKPPYLPRPRPPRRIYNR [sr-Onc] (VDKPPYLPRPRPPRRIYNR-NH2; also: all 19 residues stereorandomized (1:1 L/D mixture)) [fully stereorandomized oncocin] | >64 | >64 | – | – | 8 | 32 | 8 | 32 | 8 | 32 | 8 | 32 | > 16 µg/mL | > 64 µg/mL | >16 | >64 | 8 | > 64 | 8 | >64 / >64 μg/mL | MIC S. aureus, Full MHB (S. aureus COL (MRSA)): >64 / >64 μg/mL; MIC S. aureus COL (MRSA) (S. aureus COL (MRSA); full MH pH 7.4): >64 µg/mL; Protection of U2506 of 23S rRNA from CMCT modification (band at C2507) [3]: did not protect U2506 from CMCT modification
